Values joined by “and” are separate entries in the source; they are usually repeats but may differ in a detail not shown here. Equal values may be shown once.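 1) Cells in 96-well plates. 2) Compound, 48 h, 5 concentrations. 3) Linear interpolation between surrounding doses. 4) Unreached endpoint = highest concentration. GI50 is the concentration that inhibits growth by half. TGI is the concentration that stops growth completely.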 Where only a bound is given, the exact number is not on record here.

This is an account of results in PubChem BioAssay (NCI).

Experiment in all cases: DTP human tumour cell line panel, 48 h
Test [1] relates to EKVX NSCLC.
Test [2] has as its system HOP-92 NSCLC.
Test [3] has as its system NCI-H23 lung.
Test [4] concerns NCI/ADR-RES ovarian.
In test [5] the test system is OVCAR-4 ovarian.
The subject of test [6] is OVCAR-5 ovarian.
For test [7], the system named is RPMI-8226 leukemia.
The test system of test [8] is RXF 393 renal.
Test [9] deals with SNB-75 CNS.
For test [10], the system named is UACC-62 melanoma.

As for `CN1CCN(C)C1c1ccc(C2N(C)CCN2C)cc1`, the GI50 is > 100 µM in test [1]; > 100 µM in [2]; 45.7 µM in test [3]; 90.1 µM in [4]; 38.3 µM in [5]; 86.4 µM in [6]. The GI50 in test [7] was 19.3 µM; in test [8], > 100 µM; in test [9], > 100 µM; in test [10], 56.9 µM. For the same molecule, the TGI in test [1], in test [2], in test [3], in [4], in test [5] and in test [6] was > 100 µM in each case. For the same molecule, the TGI was 59.1 µM in test [7], > 100 µM in [8], > 100 µM in test [9] and > 100 µM in test [10].

Take `OCc1ccc(-c2nc(-c3ccc4c(c3)OCO4)c(-c3ccccn3)[nH]2)cc1`: the GI50 in test [1] was > 25 µM; in [2], > 12.9 µM; in test [3] it was > 25 µM; in test [4] it was 10.4 µM; in [5], > 25 µM; in [6], > 22.8 µM. Moreover, the GI50 is 15.9 µM in test [7], > 16.5 µM in test [8], > 7.04 µM in test [9] and > 25 µM in test [10]. Also, the TGI in test [1], in test [2], in test [3], in test [4], in test [5] and in [6] was > 25 µM in each case. Further, the TGI in test [7], in test [8], in [9] and in [10] was > 25 µM in each case.

Turning to `CC[C@]12CN3CCc4c([nH]c5ccccc45)[C@@](C(=O)OC)(c4cc5c(cc4OC)N(C)[C@H]4[C@@](O)(C(=O)OC)[C@H](OC(C)=O)[C@]6(CC)C=CCN7CC[C@]54[C@@H]76)CC(C3)[C@H]1O2` (stereo partly drawn), the GI50 in [1] is 0.256 µM; in test [2], 1.29 µM; in test [3] it was 0.205 µM; in test [4] it was 11.6 µM; in test [5] it was 0.327 µM; in test [6], 1.19 µM. Also, the GI50 in test [7] is 0.138 µM; in [10], 0.224 µM. Also, the total growth inhibition concentration (TGI) in test [1] is > 100 µM; in [2], > 100 µM; in test [3] it was > 68.1 µM; in test [4], > 100 µM; in test [5], > 100 µM; in [6], > 100 µM. For the same molecule, the TGI in test [7] was > 100 µM; in test [8], > 100 µM; in test [9] it was > 100 µM; in [10], 76.9 µM and > 50 µM.

For the molecule `O=Cc1ccc(-c2ccc(-c3nc4ccccc4s3)cc2)o1`, the GI50 was > 100 µM in test [1]; 94.3 µM in test [2]; 67.7 µM in test [3]; 97.7 µM in test [4]; > 100 µM in test [5]; > 100 µM in test [6]. In addition, the GI50 is 20.9 µM in [7], 62.7 µM in test [8], > 100 µM in [9] and > 100 µM in test [10]. The total growth inhibition concentration (TGI) in test [1], in [2], in test [3], in test [4], in [5] and in test [6] was > 100 µM each time. The TGI in [7], in test [8], in [9] and in [10] was > 100 µM throughout.

As for `COc1ccc(O)c(/C=N\Nc2ccccc2)c1`, the total growth inhibition concentration (TGI) in [1] was > 100 µM; in [2], > 100 µM; in test [3], 67.7 µM; in test [4], > 100 µM; in [5] it was > 100 µM; in test [6] it was > 100 µM. Also, the TGI was 5.94 µM in test [7], > 100 µM in test [8], > 100 µM in test [9] and 12.3 µM in [10].

For `COc1ccc(-c2cnc(-c3ccc(OC)cc3)n2-c2cc(OC)c(OC)c(OC)c2)cc1`, the GI50 in test [1] was 36.8 µM; in test [2], 19.7 µM; in test [3], 28.6 µM; in test [4], 30.3 µM; in test [5], 33.5 µM; in test [6], 45.9 µM. Moreover, the GI50 is 25.7 µM in test [7], 14 µM in [8], 12.6 µM in test [9] and 17.3 µM in test [10]. The TGI in test [1] was > 100 µM; in [2], 52.1 µM; in test [3], > 100 µM; in test [4], > 100 µM; in test [5], 58.3 µM; in test [6], > 100 µM. Further, the TGI in test [7] is > 100 µM; in [8], 35.9 µM; in test [9], 30.1 µM; in test [10], 45 µM.

As to `Nc1nc(Sc2ccc([N+](=O)[O-])c3nonc23)c2ncn(C3OC(CO)C(O)C3O)c2n1` (stereo not drawn), the GI50 in [1] is 2.88 µM; in test [2] it was 0.514 µM; in test [3] it was 1.34 µM; in test [4] it was 0.47 µM; in test [5], 1.89 µM; in test [6], 1.07 µM. Besides, the GI50 in test [7] is 0.278 µM; in [8], 10.4 µM; in test [9], 0.886 µM; in test [10] it was 0.478 µM. The TGI in test [1] was > 49.8 µM; in test [2], 18.1 µM; in test [3], 13.9 µM; in test [4], > 73.2 µM; in test [5] it was 17.8 µM; in test [6], 13.1 µM. For the same molecule, the TGI is 15.2 µM in test [7], > 62.5 µM in test [8], > 100 µM in [9] and 3.59 µM in test [10].

On to `Cc1cccc2c(=O)c3c(sc12)c(NCCCNCCO)nc1ccccc13`, for which the GI50 in [1] is 1.57 µM; in test [2], 1.21 µM; in [3], 1.66 µM; in test [4], 1.73 µM; in [5], 1.8 µM; in test [6], 1.6 µM. Also, the GI50 in test [7] is 1.81 µM; in test [8] it was 1.51 µM; in test [9], 1.13 µM; in test [10], 1.67 µM. Besides, the TGI in test [1] turned out to be 3 µM; in test [2], 3.24 µM; in [3], 3.13 µM; in [4] it was 3.26 µM; in [5] it was 3.44 µM; in test [6], 3.02 µM. In addition, the TGI in test [7] is 3.81 µM; in test [8], 2.89 µM; in test [9] it was 2.35 µM; in test [10] it was 3.17 µM.

On to `COc1cc(-n2cc(-c3ccc(Cl)cc3)n(-c3ccccc3)c2=O)cc(OC)c1OC`, for which the GI50 in [1] was 18.5 µM; in test [2], 22.7 µM; in [3], 35.1 µM; in test [4], 21.5 µM; in [5] it was 17.9 µM; in [6] it was 39.4 µM. For the same molecule, the GI50 in test [7] was 30.6 µM; in test [8], 24.5 µM; in test [9], 20.9 µM; in [10], 4.92 µM. In addition, the TGI in test [1], in [2], in test [3], in test [4], in test [5] and in [6] was > 100 µM each time. In addition, the TGI in [7] is > 100 µM; in [8], > 100 µM; in test [9], > 100 µM; in [10], 28.2 µM.

As to `O=S(O)O.O=S(O)O.[Co].[NH2-].[NH2-].[NH2-].[NH2-]`, the GI50 in [1], in [2], in test [3], in [4], in [5] and in test [6] was > 100 µM throughout. Also, the GI50 in [7], in test [8], in test [9] and in test [10] was > 100 µM throughout. The TGI in test [1], in [2], in test [3], in test [4], in test [5] and in [6] was > 100 µM each time. Also, the TGI in test [7], in test [8], in test [9] and in [10] was > 100 µM each time.

Consider `NC(=O)c1cn(C2CC(O)C(CO)O2)c2ncnc(N)c12` (stereo not drawn), for which the GI50 in [1] was 1.92 µM; in test [2] it was 0.429 µM; in test [3], 2.5 µM; in [4] it was 2 µM; in test [5], 6.26 µM; in test [6] it was 9.81 µM. In addition, the GI50 in test [7] is 27.7 µM; in test [8], 2.08 µM; in test [9] it was 1.52 µM; in test [10] it was 2.39 µM. The TGI is > 23.2 µM in test [1]; 13.6 µM in test [2]; 18.8 µM in test [3]; 24.2 µM in test [4]; > 100 µM in test [5]; > 71.6 µM in test [6]. In addition, the TGI in test [7] was > 100 µM; in [8], 13.9 µM; in test [9], 9.47 µM; in test [10], 23 µM.

For `Cc1[nH]c2ccccc2c1CO`, the GI50 in test [1] was 20.9 µM; in [2] it was 14.6 µM; in test [3] it was 18.6 µM; in test [4], 19.5 µM; in test [5], 21.4 µM; in test [6], 24.4 µM. Further, the GI50 in [7] is 26.9 µM; in test [8], 20.2 µM; in [9], 7.33 µM; in test [10] it was 17.2 µM. The TGI was found to be 70.7 µM in [1]; 40.9 µM in [2]; 46 µM in test [3]; 60.3 µM in test [4]; 82.6 µM in test [5]; 96.9 µM in test [6]. The TGI in [7] is > 100 µM; in test [8], 47.6 µM; in [9] it was 39.3 µM; in test [10], 37.4 µM.

Turning to `CCOC(=O)c1c(NN2CCN(CC(F)(F)F)CC2)oc(/C=C2\C=Nc3ncccc32)c1O`, the GI50 was 11.1 µM in [1]; 12.9 µM in test [2]; 7 µM in test [3]; 19.3 µM in test [4]; 6.17 µM in test [5]; 19.3 µM in test [6]. Also, the GI50 in [7] was 4.25 µM; in [8], 1.2 µM; in test [9], 0.325 µM; in test [10] it was 4.83 µM. Also, the TGI in [1] amounted to 33.2 µM; in test [2], 40.9 µM; in [3], 21.7 µM; in test [4], 57.8 µM; in test [5] it was 26.4 µM; in [6], 67.5 µM. In addition, the TGI is 20.7 µM in test [7], 4.19 µM in [8], 11.6 µM in [9] and 15.1 µM in test [10].

With `O=C1CN=C(c2ccc[nH]2)c2cc(Cl)ccc2N1`, the GI50 in test [1] was > 100 µM; in test [2], 12.2 µM; in test [3], 18.6 µM; in test [4] it was 57.4 µM; in [5] it was > 100 µM; in test [6], > 100 µM. Besides, the GI50 in [7] is 3.83 µM; in test [8], > 100 µM; in [9] it was > 100 µM; in test [10], 95 µM. Moreover, the TGI in test [1], in [2], in [3], in test [4], in [5] and in [6] was > 100 µM throughout. The TGI in [7], in [8], in test [9] and in [10] was > 100 µM in each case.

With `COc1ccc(Sc2[nH]c(C=O)c3ccccc23)cc1`, the GI50 in test [1] is 5.49 µM; in test [2], 5.52 µM; in [3], 14.3 µM; in test [4] it was 11.6 µM; in test [5], 22.4 µM; in test [6] it was 6.1 µM. Further, the GI50 in test [7] was 7.13 µM; in [8], 10.7 µM; in [9], 11.9 µM; in test [10], 11 µM. Moreover, the total growth inhibition concentration (TGI) in test [1] is 34.1 µM; in [2], 21 µM; in [3], 32.3 µM; in test [4], 47.5 µM; in test [5], 61.7 µM; in test [6] it was 28.3 µM. In addition, the TGI in test [7] turned out to be 26 µM; in test [8], 33.3 µM; in test [9], 25.5 µM; in test [10] it was 26.1 µM.
